The target in assay [1] is T1, M4 muscarinic receptor (Homo sapiens, UniProt P08173).
T1 construct: expressed in transfected cells; host or cells: CHO (M4-CHO)
T1 sequence (P08173 1-479): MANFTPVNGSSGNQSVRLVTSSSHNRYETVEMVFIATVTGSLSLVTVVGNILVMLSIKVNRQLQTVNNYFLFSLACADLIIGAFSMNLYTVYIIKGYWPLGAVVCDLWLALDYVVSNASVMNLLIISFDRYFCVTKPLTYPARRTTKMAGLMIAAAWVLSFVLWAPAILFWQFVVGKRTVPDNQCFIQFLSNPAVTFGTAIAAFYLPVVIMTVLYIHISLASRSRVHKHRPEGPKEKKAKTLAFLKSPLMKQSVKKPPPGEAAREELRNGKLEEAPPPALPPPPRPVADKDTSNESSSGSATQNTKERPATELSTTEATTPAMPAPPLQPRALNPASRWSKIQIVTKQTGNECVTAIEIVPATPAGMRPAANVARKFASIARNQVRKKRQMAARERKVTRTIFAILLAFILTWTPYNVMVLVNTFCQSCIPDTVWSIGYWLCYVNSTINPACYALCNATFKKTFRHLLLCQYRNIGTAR
Description: Functional mobilization of intracellular calcium (FLIPR) in M4-CHO cells. The format is cell-based. To be noted: Table 4; for Emax: 100% efficacy is the maximum response obtained with the Carbachol control; for M4 Activity: modulating M4 receptor. An outline of the steps:
(§1)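 Two modes: direct compound addition for agonism, or 15 min compound pre-incubation (or co-application) before carbachol at EC80 for inhibition. Calcium signal from Fluo-3 AM or Calcium 3 dye in CHO cells, 1 mM probenecid, pH 7.4, read 60 sec at 488/540 nm; DMSO 0.5% final.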

The target in assay [2] is T2, M1 muscarinic receptor (Homo sapiens, UniProt P11229).
T2 construct: expressed in transfected cells; host or cells: CHO (M1-CHO)
T2 sequence (P11229 1-460): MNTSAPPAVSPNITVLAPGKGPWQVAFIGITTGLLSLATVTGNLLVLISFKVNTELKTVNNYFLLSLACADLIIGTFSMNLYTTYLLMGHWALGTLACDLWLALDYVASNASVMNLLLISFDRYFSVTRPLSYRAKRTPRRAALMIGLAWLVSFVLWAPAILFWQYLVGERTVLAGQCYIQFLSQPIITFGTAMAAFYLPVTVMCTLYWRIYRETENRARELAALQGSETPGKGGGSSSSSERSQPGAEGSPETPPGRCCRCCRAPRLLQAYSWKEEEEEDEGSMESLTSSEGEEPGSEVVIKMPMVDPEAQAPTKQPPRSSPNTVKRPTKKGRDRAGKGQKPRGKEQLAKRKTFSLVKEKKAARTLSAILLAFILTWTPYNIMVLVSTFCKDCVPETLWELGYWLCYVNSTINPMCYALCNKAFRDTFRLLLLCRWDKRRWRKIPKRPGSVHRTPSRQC
Description: Functional mobilization of intracellular calcium (FLIPR) in M1-CHO cells. The format is cell-based. The following applies: Table 4; for Emax: 100% efficacy is the maximum response obtained with the Carbachol control; for M1 Activity: modulating M1 receptor. Put shortly:
as §1
In general terms: Calcium flux is commonly read through the fluorescence of an indicator in the cells.

As usually defined, the Emax is the greatest response seen or fitted, relative to the assay's reference. For the molecule `CN(C)C(=O)N1CC2(CCN(C3CCCN(C(=O)OCCF)CC3)CC2)c2cc(F)ccc21` (centres unmarked) [compound 772], in assay [1], the Emax is 25 to 100% and the “M4 Activity” value was “xxx (activity was measured to be less than 2.0 μM)”. Moreover, in assay [2], the maximum response (Emax) was 25 to 100% and the “M1 Activity” value is reported as “xxx (activity was measured to be less than 2.0 μM)”.

For `CS(=O)(=O)N[C@H]1CCC2(CCN(CC3CCCCC3)CC2)c2ccccc21` [compound 773], in assay [1], the Emax fell in the range of 25 to 100% and the “M4 Activity” value is “xxx (activity was measured to be less than 2.0 μM)”. In addition, in assay [2], the maximal effect (Emax) is 25 to 100% and the “M1 Activity” value is given as “xxx (activity was measured to be less than 2.0 μM)”.

For `CCOC(=O)N1CCC(N2CCC3(CC2)C[C@H](NC(C)=O)c2cc(OC)c(OC)cc23)CC1` [compound 774], in assay [1], the maximal effect (Emax) is 25 to 100% and the “M4 Activity” value is given as “x (activity was measured to be greater than 5.0 μM)”. In assay [2], the maximum response (Emax) lay in the range of 25 to 100% and the “M1 Activity” value is given as “x (activity was measured to be greater than 5.0 μM)”.

Regarding `C#CCOC(=O)N1CC[C@@H](CN2CCC3(CC2)CN(C(=O)N(C)C)c2ccc(F)cc23)C1` [compound 775], in assay [1], the maximal response (Emax) lay in the range of 25 to 100% and the “M4 Activity” value is “xxx (activity was measured to be less than 2.0 μM)”. In addition, in assay [2], the Emax was 25 to 100% and the “M1 Activity” value is given as “xxx (activity was measured to be less than 2.0 μM)”.

In the case of `CC#CCOC(=O)N1C2CCC1CC(N1CCC3(CC1)CN(C(C)=O)c1ccccc13)C2` (centres unmarked) [compound 777], in assay [1], the maximal effect (Emax) is 25 to 100% and the “M4 Activity” value is listed as “xxx (activity was measured to be less than 2.0 μM)”. For the same molecule, in assay [2], the maximum response (Emax) is 25 to 100% and the “M1 Activity” value is “xxx (activity was measured to be less than 2.0 μM)”.

With `O=C(N[C@H]1CC2(CCN(C3CCCCC3)CC2)c2ccccc21)C1CC1` [compound 779], in assay [1], the maximal response (Emax) is < 25% and the “M4 Activity” value is given as “xxx (activity was measured to be less than 2.0 μM)”. Also, in assay [2], the maximal effect (Emax) was 25 to 100%; the “M1 Activity” value is “xx (activity was measured to be between 2.0 μM and 5.0 μM)”.

Regarding `CC(=O)N[C@H]1CC2(CCN(CC(=O)N3CCC(=O)N3)CC2)c2ccccc21` [compound 780], in assay [1], the Emax was < 25% and the “M4 Activity” value is listed as “x (activity was measured to be greater than 5.0 μM)”. Moreover, in assay [2], the maximal effect (Emax) is < 25% and the “M1 Activity” value is on record as “x (activity was measured to be greater than 5.0 μM)”.

Turning to `CN(C)C(=O)N1CC2(CCN(C3CCN(C(=O)C4COc5ccccc5O4)CC3)CC2)c2cc(F)ccc21` (centres unmarked) [compound 781], in assay [1], the maximal effect (Emax) was < 25% and the “M4 Activity” value is reported as “x (activity was measured to be greater than 5.0 μM)”. In assay [2], the Emax was 25 to 100% and the “M1 Activity” value is on record as “x (activity was measured to be greater than 5.0 μM)”.

With `CC(=O)N[C@H]1CC2(CCN(CC(=O)N3C[C@@H](C)O[C@@H](C)C3)CC2)c2ccccc21` [compound 782], in assay [1], the maximal effect (Emax) is < 25% and the “M4 Activity” value is reported as “x (activity was measured to be greater than 5.0 μM)”. Moreover, in assay [2], the maximal response (Emax) was < 25% and the “M1 Activity” value is “x (activity was measured to be greater than 5.0 μM)”.

With `CCOC(=O)N1CCC(N2CCC3(CC2)CC(=O)c2cc(C)ccc23)CC1` [compound 783], in assay [1], the Emax fell in the range of 25 to 100%; the “M4 Activity” value was “xx (activity was measured to be between 2.0 μM and 5.0 μM)”. Further, in assay [2], the Emax was in the range of 25 to 100% and the “M1 Activity” value was “xxx (activity was measured to be less than 2.0 μM)”.

For `CC(=O)N[C@H]1CC2(CCN(CCC3=C(C)CCCC3(C)C)CC2)c2ccccc21` [compound 784], in assay [1], the Emax is < 25% and the “M4 Activity” value is “x (activity was measured to be greater than 5.0 μM)”. Moreover, in assay [2], the Emax was < 25% and the “M1 Activity” value is recorded as “x (activity was measured to be greater than 5.0 μM)”.

Consider `CCOC(=O)N1CCC(CN2CCC3(CC2)CN(C(C)=O)c2c(C)cccc23)CC1` [compound 785], for which, in assay [1], the Emax is 25 to 100% and the “M4 Activity” value is given as “xxx (activity was measured to be less than 2.0 μM)”. Besides, in assay [2], the Emax fell in the range of 25 to 100%; the “M1 Activity” value is “xx (activity was measured to be between 2.0 μM and 5.0 μM)”.

Turning to `O=C1CC2(CCN([C@@H]3C[C@@H]4CC[C@@H]3C4)CC2)c2cc(Cl)ccc21` [compound 787], in assay [1], the Emax was in the range of 25 to 100% and the “M4 Activity” value is “xxx (activity was measured to be less than 2.0 μM)”. Also, in assay [2], the Emax lay in the range of 25 to 100% and the “M1 Activity” value was “xxx (activity was measured to be less than 2.0 μM)”.

`Clc1ccc2c(c1)C1(CCN(CC3CC4C=CC3C4)CC1)C[C@@H]2NCC1CC2C=CC1C2` (some centres unmarked) [compound 788]: in assay [1], the Emax lay within 25 to 100%; the “M4 Activity” value is “xx (activity was measured to be between 2.0 μM and 5.0 μM)”. In addition, in assay [2], the Emax lay within 25 to 100%; the “M1 Activity” value is “xx (activity was measured to be between 2.0 μM and 5.0 μM)”.

As for `CN(C)C(=O)N[C@H]1CCC2(CCN([C@@H]3C[C@@H]4CC[C@H]3C4)CC2)c2ccccc21` [compound 789], in assay [1], the Emax was in the range of 25 to 100% and the “M4 Activity” value was “x (activity was measured to be greater than 5.0 μM)”. Also, in assay [2], the Emax lay in the range of 25 to 100% and the “M1 Activity” value is “x (activity was measured to be greater than 5.0 μM)”.

On to `CN(C)C(=O)N1CC2(CCN(C3CCN(c4ncccn4)CC3)CC2)c2cc(F)ccc21` [compound 790], for which, in assay [1], the maximum response (Emax) was in the range of 25 to 100% and the “M4 Activity” value was “xxx (activity was measured to be less than 2.0 μM)”. In addition, in assay [2], the Emax was in the range of 25 to 100%; the “M1 Activity” value is “xx (activity was measured to be between 2.0 μM and 5.0 μM)”.

On to `CN(C)C(=O)N1CC2(CCN(C3CCN(C(=O)c4ccncc4)CC3)CC2)c2cc(F)ccc21` [compound 791], for which, in assay [1], the maximal effect (Emax) was < 25% and the “M4 Activity” value is listed as “x (activity was measured to be greater than 5.0 μM)”. In addition, in assay [2], the Emax lay in the range of 25 to 100%; the “M1 Activity” value is “xx (activity was measured to be between 2.0 μM and 5.0 μM)”.

As for `CC(=O)N[C@H]1CC2(CCN(CC(=O)N3CCCCC3)CC2)c2ccccc21` [compound 792], in assay [1], the Emax is 25 to 100% and the “M4 Activity” value is recorded as “x (activity was measured to be greater than 5.0 μM)”. For the same molecule, in assay [2], the Emax fell in the range of 25 to 100% and the “M1 Activity” value is “x (activity was measured to be greater than 5.0 μM)”.

For the molecule `CCC#CCOC(=O)N1CC[C@@H](CN2CCC3(CC2)CN(C(C)=O)c2cccc(C)c23)C1` [compound 793], in assay [1], the maximal response (Emax) was in the range of 25 to 100% and the “M4 Activity” value is given as “xxx (activity was measured to be less than 2.0 μM)”. Besides, in assay [2], the Emax was in the range of 25 to 100% and the “M1 Activity” value is on record as “xxx (activity was measured to be less than 2.0 μM)”.

Consider `CC(=O)N1CC2(CCN(C3CCN(c4ncc(C)s4)CC3)CC2)c2ccccc21` [compound 794], for which, in assay [1], the Emax is < 25% and the “M4 Activity” value is reported as “x (activity was measured to be greater than 5.0 μM)”. Moreover, in assay [2], the maximal effect (Emax) was < 25% and the “M1 Activity” value is given as “x (activity was measured to be greater than 5.0 μM)”.
